Measured values published in patent US20130333059A1, “HOX COMPOSITIONS AND METHODS” (THE JOHNS HOPKINS UNIVERSITY, priority 2006, published 2013).
“Also recorded” adds a separate entry of the source.

Legend:
MCF-7-B7 cells [1] = assay: Xenograft of MCF-7-B7 cells in athymic mice; assay type: in vivo; conditions: absence of exogenous estrogen supplement
Method: 3×10^6 cells of MCF-7-vec or MCF-7-B7 were suspended in 100 μl PBS/Matrigel (1:1) and injected s.c into the female 3- to 4-week-old BALB/c nu/nu athymic mice (Harlan, Sprague Dawley, Madison, Wis.), which simultaneously received a 60-day slow release pellet containing 0.72 mg of 17β-estradiol and/or 5 mg tamoxifen (Innovative Research of America, Southfield, Mich.). Fulvestrant was dissolved in 100% ethanol and diluted in sesame oil; 5 mg was injected s.c. twice a week^20. Animals were observed once a week. At necropsy, primary tumors, liver, lung and spleen were evaluated for the presence of macroscopic tumors. Tissue samples of the primary tumor and organs were fixed in 4% paraformaldehyde and stained with H&E to assess histomorphology.

[2] = system: EGFR/HER2 and ERα signaling; assay: Immunoblot of EGFR/HER2, MAPK, ERα signaling in MCF-7-B7 cells; assay type: cell-based, human
HOXB7 promoter region = assay: CHIP analysis of T47D cells, HOXB7 promoter region; assay type: cell-based, human; conditions: 1 μM tamoxifen, 45 min
LTED cells = conditions: Martin La., 2005; cited from earlier work
MCF-7-TMR cells = assay: Colony formation and ERE-Luc activity, MCF-7-TMR cells; assay type: cell-based, human
[3] = system: EGFR/HER2 and ERα signaling; assay: Immunoblot of EGFR/HER2, MAPK, ERα signaling in MCF-7-vec cells; assay type: cell-based, human; conditions: 1 μM tamoxifen, estrogen deprived medium, 48 hours
[4] = system: EGFR, HER2, ERα and HOXB7; assay: Immunoblot of EGFR, HER2, ERα, HOXB7 in long-term tamoxifen treated MCF-7 (MCF-7-TMR) cells; assay type: cell-based, human
MCF-7-B7 cells [5] = assay: Soft agar colony formation, MCF-7-B7 cells; assay type: cell-based, human
ERE-luc reporter = assay: ERE-tk-Luc reporter assay, MCF-7-B7 cells; assay type: cell-based, human; conditions: 100 nM tamoxifen, 10 nM E2, 24 h
Method: Transient transfection was performed with the respective promoter-luciferase constructs. Results were normalized to the level of B-galactosidase activity in the samples. The EGFR promoter reporter plasmids were a kind gift of Dr. Alfred C. Johnson (Bethesda, Md.). ERE-tk-LUC was a generous gift from Dr. Elaine Alarid (Madison, Wis.).

[6] = system: Her2/Hoxb7 transgenic mouse mammary tumor cells; assay: Sensitivity to anti-ER drugs, Her2/Hoxb7 transgenic mouse mammary tumor cells; assay type: cell-based
HOXB7, EGFR and HER2 = assay: HOXB7, EGFR, HER2 expression in T47D cells upon tamoxifen; assay type: cell-based, human
[7] = system: Her2 positive transgenic mammary tumor cells; assay: Sensitivity to anti-ER drugs, Her2 positive transgenic mammary tumor cells; assay type: cell-based, mouse; conditions: cells do not express ER
MDCK-B7 cells = assay: Matrigel invasion assay, pooled MDCK-B7 cells; assay type: cell-based, canine; conditions: Su5402 40 μmol/L; for invasive phenotype / invasive ability of MDCK-B7 cells: 36 hours, Bay43-9006 4 μmol/L, U0126 10 μmol/L, either inhibitor alone or in combination
Method: (§1) Matrigel invasion assay. Into the Biocoat Matrigel invasion chambers (BD Biosciences) were seeded 4×10^4 cells in 2% FBS medium, and in the lower wells 10% FBS was added as the chemoattractant. After 36 hours of incubation, the filters were stained with crystal violet, and the number of cells that had penetrated through the filter was counted under ×20 magnification (10 randomly selected high-power fields). For inhibition of invasion assays, the FGF receptor inhibitor Su5402 (40 μmol/L), the MAPK/extracellular signal-regulated kinase kinase (MEK) inhibitor U0126 (10 μmol/L), and the Raf inhibitor Bay43-9006 (4 μmol/L; Calbiochem, San Diego, Calif.) were added to the medium in the top chamber at the final concentrations indicated. Ras and RhoA activation assay. Cell lysates were incubated with glutathione S-transferase (GST)-Raf-1 Ras binding domain or GST-Rhotekin RhoA binding domain agarose beads (Upstate, Charlottesville, Va.). GTP-bound Ras or RhoA that precipitated with the beads were detected by SDS-PAGE and immunoblotting with anti-Ras antibody (Santa Cruz Biotechnology) or anti-RhoA antibody (Upstate).

BT474 cells = assay: Soft agar colony formation, BT474 cells; assay type: cell-based, human; conditions: 1 μM gefitinib and 1 μM tamoxifen
Ras = Ras activation assay, MDCK-B7 cells; assay type: cell-based, canine
Method: as §1

TGFα and HB-EGF = assay: Immunoblot of TGFα and HB-EGF in MCF-10A-B7 cells; assay type: cell-based, human; conditions: 0.1 μM AG1478, 24 hours
[8] = in the clinic; cited from earlier work
[9] = MCF-7 cells, 0.1 μM tamoxifen over time (0, 2, 4, 6 months)
[10] = MCF-7 cells, 1 μM or 0.1 μM tamoxifen for at least 6 months

CC/C(=C(\c1ccccc1)c1ccc(OCCN(C)C)cc1)c1ccccc1 [tamoxifen]
effect on established tumors of MCF-7-B7 cells in nude mice (MCF-7-B7 cells [1]; tamoxifen 83.3 μg/day): no inhibitory effect
effect on the expression of Cyclin D1 and Bcl-2 ([2]; 1 μM tamoxifen, 48 hours): potent estrogen-like agonistic effect
p44/42 MAPK activity and phosphorylation of ERα at serine 118 ([2]; 1 μM tamoxifen, 48 hours): increased
active forms of EGFR and HER2 ([2]; 1 μM tamoxifen, estrogen deprived medium, 48 hours): significantly higher level
activation of p44 MAPK and ER phosphorylation at Ser 118 site ([2]; 1 μM tamoxifen, short period, MCF-7-B7): potently stimulates
levels of active forms of EGFR and HER2 ([2]; 1 μM tamoxifen, short period, estrogen deprived): elevated levels
binding of ERα to HOXB7 promoter region (HOXB7 promoter region): promoted binding
sensitivity of LTED cells (LTED cells): refractory
resistance to tamoxifen treatment (colony formation and ERE-Luc activity) (MCF-7-TMR cells; 100 nM tamoxifen): significant resistance
increase of active form of HER2 [3]: about 1.5 fold
levels of the active form of EGFR [3]: reduction
expression of EGFR/HER2 and ERα [4, 9]: concomitant increases
levels of expression of HOXB7 [4, 9]: progressively increasing levels
HOXB7 expression level [4, 10]: potently elevated
expression of EGFR, HER2 and ERα [4, 10]: elevated expression
growth (colonies in soft agar) (MCF-7-B7 cells [5]; estrogen-deprived conditions, tamoxifen 1 μM): enhanced
sensitivity to the inhibitory effects of tamoxifen in culture (MCF-7-B7 cells [5]; tamoxifen 1 μM, complete medium): loss of sensitivity
attenuation of estrogen-stimulated ERE-luc reporter activity (ERE-luc reporter): inability
response to treatment [6]: not responding
expression of HOXB7 (HOXB7, EGFR and HER2; 1 μM tamoxifen, short-term): increased expression
expression levels of EGFR and HER2 (HOXB7, EGFR and HER2; tamoxifen): induced
response to treatment [7]: did not respond

CNC(=O)c1cc(Oc2ccc(NC(=O)Nc3ccc(Cl)c(C(F)(F)F)c3)cc2)ccn1 [Bay43-9006]
invasive phenotype / invasive ability of MDCK-B7 cells (MDCK-B7 cells): complete suppression
invasive phenotype / invasive ability of MDCK-B7 cells (MDCK-B7 cells; listed as BAY 43-9006): block

N#CC(=C(/N)Sc1ccccc1N)/C(C#N)=C(\N)Sc1ccccc1N [U0126]
invasive phenotype / invasive ability of MDCK-B7 cells (MDCK-B7 cells): complete suppression; also recorded: block

COc1cc2ncnc(Nc3ccc(F)c(Cl)c3)c2cc1OCCCN1CCOCC1 [gefitinib]
sensitivity of the cells to tamoxifen treatment (MCF-7-B7 cells [5]; 1 μM tamoxifen in combination with 1 μM gefitinib): significantly re-sensitized
effect on tamoxifen action in BT474 cells (BT474 cells): dramatically converted tamoxifen from a partial agonist to a potent antagonist

Cc1c[nH]c(/C=C2\C(=O)Nc3ccccc32)c1CCC(=O)O [Su5402]
invasive phenotype / invasive ability of MDCK-B7 cells (MDCK-B7 cells): reduce
inhibition of invasion ability of MDCK-B7 cell (MDCK-B7 cells): ~80%
active form Ras (Ras-GTP form) (Ras): attenuate

COc1cc2ncnc(Nc3cccc(Cl)c3)c2cc1OC [AG1478]
elevated expression of TGFα and HB-EGF (TGFα and HB-EGF): significantly abrogated

C[C@]12CC[C@@H]3c4ccc(O)cc4C[C@@H](CCCCCCCCC[S+]([O-])CCCC(F)(F)C(F)(F)F)[C@H]3[C@@H]1CC[C@@H]2O (stereo partly shown) [fulvestrant]
tumor formation in vivo (MCF-7-B7 cells [1]; fulvestrant 10 mg/week): reduced
levels of the autocrine/paracrine EGFR ligands (Amphiregulin and TGFα) ([2]; 1 μM fulvestrant, 24 h): significant reduction
HOXB7 overexpression-related increases in EGFR and p44/42 MAPK activity ([2]; fulvestrant treatment): reduced
sensitivity of LTED cells (LTED cells): sensitive
sensitivity to fulvestrant treatment in vitro (MCF-7-TMR cells; MCF-7-TMR, 1 μM Fulvestrant): remained sensitive
expression of EGFR and HER2 ([4]; MCF-7-TMR cells, 1 μM fulvestrant, 24 h): significantly reduced
HOXB7 levels ([4]; MCF-7-TMR cells, 1 μM fulvestrant, 24 h, vs vehicle): lower
sensitivity to fulvestrant treatment in vitro (MCF-7-B7 cells [5]; MCF-7-B7, 1 μM Fulvestrant): remained sensitive
HOXB7-promoted colony formation in vitro (MCF-7-B7 cells [5]; in a dose-dependent manner): reduced
tamoxifen-relapsed / tamoxifen-resistant patients who respond [8]: nearly two-thirds
response to treatment [6]: strongly respond
response to treatment [7]: did not respond
